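How tested: cells in 96-well plates exposed to compound for 48 hours at five concentrations. GI50 marks 50% less growth.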 Activity calls are given as the source filed them. Rule as the data show it: active = GI50 up to about 1.1 µM and inactive = higher.
Legend:
Assay in all cases: inhibition of tumour cell growth, NCI panel, 48 h
[1] = tested on: HCT-15
[2] = tested on: KM-20L2
[3] = tested on: KM12
[4] = tested on: OVCAR-3
[5] = tested on: HCT-116
[6] = tested on: A549
[7] = tested on: DMS-114
[8] = tested on: EKVX
[9] = tested on: SN12C
[10] = tested on: HOP-92
[11] = tested on: ACHN
[12] = tested on: SW-620
[13] = tested on: HOP-18
[14] = tested on: HL-60
[15] = tested on: TK-10
[16] = tested on: A498
[17] = tested on: DLD-1
[18] = tested on: SR
[19] = tested on: SNB-75
[20] = tested on: CCRF-CEM
[21] = tested on: LXFL 529
[22] = tested on: LOX IMVI
[23] = tested on: OVCAR-5
[24] = tested on: U-251
[25] = tested on: OVCAR-4
[26] = tested on: CAKI-1
[27] = tested on: SF-295
[28] = tested on: NCI-H522
[29] = tested on: SK-MEL-2
[30] = tested on: HT-29
[31] = tested on: UACC-62
[32] = tested on: NCI-H460
[33] = tested on: SK-OV-3
[34] = tested on: SF-539
[35] = tested on: 786-0
[36] = tested on: DMS-273
[37] = tested on: HOP-62
[38] = tested on: UACC-257
[39] = tested on: UO-31
[40] = tested on: RPMI-8226
[41] = tested on: IGROV-1
[42] = tested on: SK-MEL-5
[43] = tested on: COLO 205
[44] = tested on: Malme-3M
[45] = tested on: SF-268
[46] = tested on: K562
[47] = tested on: NCI-H23
[48] = tested on: NCI-H226
[49] = tested on: M14
[50] = tested on: HCC 2998
[51] = tested on: RXF 393
[52] = tested on: OVCAR-8
[53] = tested on: M19-MEL
[54] = tested on: SK-MEL-28
[55] = tested on: RXF 631
[56] = tested on: MDA-MB-231
[57] = tested on: BT-549
[58] = tested on: Hs-578T
[59] = tested on: SNB-78
[60] = tested on: MCF7
[61] = tested on: PC-3
[62] = tested on: MDA-MB-435
[63] = tested on: T47D
[64] = tested on: NCI/ADR-RES
[65] = tested on: XF498
[66] = tested on: DU-145
[67] = tested on: MOLT-4
[68] = tested on: SNB-19
[69] = tested on: MDA-N

CN(C)CC1CCCC/C1=N/OC(=O)c1ccc(Cl)c(Cl)c1 (configuration not stated)
GI50 [1]: > 100 µM
GI50 [2]: > 100 µM (inactive)
GI50 [3]: > 100 µM (inactive)
GI50 [4]: > 100 µM (inactive)
GI50 [5]: > 100 µM (inactive)
GI50 [6]: > 100 µM (inactive)
GI50 [7]: > 100 µM (inactive)
GI50 [8]: > 100 µM (inactive)
GI50 [9]: > 100 µM (inactive)
GI50 [10]: 66.5 µM (inactive)
GI50 [11]: > 100 µM (inactive)
GI50 [12]: > 100 µM (inactive)
GI50 [13]: > 100 µM (inactive)
GI50 [14]: > 100 µM (inactive)
GI50 [15]: > 100 µM (inactive)
GI50 [16]: > 100 µM (inactive)
GI50 [17]: > 100 µM (inactive)
GI50 [18]: > 100 µM (inactive)
GI50 [19]: 33.3 µM (inactive)
GI50 [20]: > 100 µM (inactive)
GI50 [21]: > 100 µM (inactive)
GI50 [22]: > 100 µM (inactive)
GI50 [23]: > 100 µM (inactive)
GI50 [24]: > 100 µM (inactive)
GI50 [25]: > 100 µM (inactive)
GI50 [26]: > 100 µM (inactive)
GI50 [27]: > 100 µM (inactive)
GI50 [28]: > 100 µM (inactive)
GI50 [29]: > 100 µM (inactive)
GI50 [30]: > 100 µM (inactive)
GI50 [31]: > 100 µM (inactive)
GI50 [32]: > 100 µM (inactive)
GI50 [33]: > 100 µM (inactive)
GI50 [34]: > 100 µM (inactive)
GI50 [35]: > 100 µM (inactive)
GI50 [36]: > 100 µM (inactive)
GI50 [37]: > 100 µM (inactive)
GI50 [38]: > 100 µM (inactive)
GI50 [39]: 70.6 µM (inactive)
GI50 [40]: > 100 µM (inactive)
GI50 [41]: > 100 µM (inactive)
GI50 [42]: > 100 µM (inactive)
GI50 [43]: > 100 µM (inactive)
GI50 [44]: > 100 µM (inactive)
GI50 [45]: > 100 µM (inactive)
GI50 [46]: > 100 µM (inactive)
GI50 [47]: > 100 µM (inactive)
GI50 [48]: > 100 µM (inactive)
GI50 [49]: > 100 µM (inactive)
GI50 [50]: > 100 µM (inactive)
GI50 [51]: > 100 µM (inactive)
GI50 [52]: > 100 µM (inactive)
GI50 [53]: > 100 µM (inactive)
GI50 [54]: > 100 µM (inactive)
GI50 [55]: > 100 µM (inactive)

COc1cccc2ccc3c(c12)C(=O)OC31CCc2c(C)cccc21 (configuration not stated)
GI50 [1]: 10.3 µM
GI50 [2]: 15 µM (inactive)
GI50 [3]: 23.7 µM (inactive)
GI50 [4]: 10.3 µM (inactive)
GI50 [5]: 8.49 µM (inactive)
GI50 [6]: 17.1 µM (inactive)
GI50 [7]: 8.67 µM (inactive)
GI50 [8]: 27.1 µM (inactive)
GI50 [9]: 16.5 µM (inactive)
GI50 [10]: 11.2 µM (inactive)
GI50 [11]: 8.04 µM (inactive)
GI50 [12]: 12.1 µM (inactive)
GI50 [13]: > 31.6 µM (inactive)
GI50 [14]: 8.59 µM (inactive)
GI50 [56]: 36.1 µM (inactive)
GI50 [57]: > 100 µM (inactive)
GI50 [15]: 23.1 µM (inactive)
GI50 [58]: 38.5 µM (inactive)
GI50 [59]: 39.1 µM (inactive)
GI50 [60]: 18 nM (active)
GI50 [16]: 7.41 µM (inactive)
GI50 [17]: 8.79 µM (inactive)
GI50 [61]: 15.6 µM (inactive)
GI50 [18]: 7.16 µM (inactive)
GI50 [19]: 13.4 µM (inactive)
GI50 [20]: 24 µM (inactive)
GI50 [21]: 15 µM (inactive)
GI50 [22]: 14.2 µM (inactive)
GI50 [23]: 26.5 µM (inactive)
GI50 [24]: 23.2 µM (inactive)
GI50 [25]: 15.2 µM (inactive)
GI50 [26]: 7.26 µM (inactive)
GI50 [27]: 9.95 µM (inactive)
GI50 [28]: 21.4 µM (inactive)
GI50 [62]: 20.4 µM (inactive)
GI50 [63]: 32.4 µM (inactive)
GI50 [29]: 32.1 µM (inactive)
GI50 [30]: 11.8 µM (inactive)
GI50 [31]: 11.6 µM (inactive)
GI50 [32]: 10.6 µM (inactive)
GI50 [33]: > 46.5 µM (inactive)
GI50 [64]: 13.4 µM (inactive)
GI50 [34]: 31.3 µM (inactive)
GI50 [35]: 28.8 µM (inactive)
GI50 [36]: 6.81 µM (inactive)
GI50 [37]: 18.5 µM (inactive)
GI50 [38]: 23.4 µM (inactive)
GI50 [39]: 9.16 µM (inactive)
GI50 [40]: 6.87 µM (inactive)
GI50 [41]: 34.5 µM (inactive)
GI50 [65]: 14.4 µM (inactive)
GI50 [42]: 10.2 µM (inactive)
GI50 [43]: 22.6 µM (inactive)
GI50 [44]: 19.1 µM (inactive)
GI50 [45]: 30.3 µM (inactive)
GI50 [46]: 7.91 µM (inactive)
GI50 [66]: 34.2 µM (inactive)
GI50 [47]: 8.51 µM (inactive)
GI50 [48]: 12 µM (inactive)
GI50 [49]: 19.9 µM (inactive)
GI50 [50]: 26.7 µM (inactive)
GI50 [67]: 13.2 µM (inactive)
GI50 [68]: 11.4 µM (inactive)
GI50 [51]: 8.97 µM (inactive)
GI50 [52]: 15.8 µM (inactive)
GI50 [53]: 15.5 µM (inactive)
GI50 [54]: 22.4 µM (inactive)
GI50 [69]: 7.55 µM (inactive)

O=[PH](O)c1ccsc1
GI50 [1]: > 100 µM
GI50 [2]: > 100 µM (inactive)
GI50 [5]: > 100 µM (inactive)
GI50 [6]: > 100 µM (inactive)
GI50 [7]: > 100 µM (inactive)
GI50 [8]: > 100 µM (inactive)
GI50 [9]: > 100 µM (inactive)
GI50 [10]: 86.5 µM (inactive)
GI50 [11]: > 100 µM (inactive)
GI50 [12]: > 100 µM (inactive)
GI50 [13]: > 100 µM (inactive)
GI50 [14]: > 100 µM (inactive)
GI50 [15]: > 100 µM (inactive)
GI50 [16]: > 100 µM (inactive)
GI50 [17]: > 100 µM (inactive)
GI50 [20]: > 100 µM (inactive)
GI50 [21]: > 100 µM (inactive)
GI50 [22]: > 100 µM (inactive)
GI50 [24]: > 100 µM (inactive)
GI50 [26]: 52.1 µM (inactive)
GI50 [28]: > 100 µM (inactive)
GI50 [30]: 55 µM (inactive)
GI50 [31]: > 100 µM (inactive)
GI50 [32]: > 100 µM (inactive)
GI50 [33]: > 100 µM (inactive)
GI50 [34]: > 100 µM (inactive)
GI50 [35]: > 100 µM (inactive)
GI50 [36]: > 100 µM (inactive)
GI50 [37]: > 100 µM (inactive)
GI50 [39]: > 100 µM (inactive)
GI50 [40]: > 100 µM (inactive)
GI50 [41]: > 100 µM (inactive)
GI50 [42]: > 100 µM (inactive)
GI50 [43]: > 100 µM (inactive)
GI50 [45]: > 100 µM (inactive)
GI50 [46]: > 100 µM (inactive)
GI50 [47]: > 100 µM (inactive)
GI50 [49]: > 100 µM (inactive)
GI50 [67]: > 100 µM (inactive)
GI50 [51]: > 100 µM (inactive)
GI50 [52]: > 100 µM (inactive)
GI50 [53]: > 100 µM (inactive)
GI50 [54]: > 100 µM (inactive)
GI50 [55]: > 100 µM (inactive)
